Assays:
[1] = test system: pancreatic exocrine function; assay: 13C-dipeptide breath test in normal rats (Δ13C in exhaled CO2 after oral administration); type: in vivo, rat; conditions: for Peak time / Δ^13C(‰) peak value: oral 35 μmol/kg (5 ml/kg); for Δ^13C(‰) peak value: exhaled CO2; for Δ^13C(‰) value at 5 min after the administration / Δ^13C(‰) value at 10 min after the administration / Δ^13C(‰) value at 15 min after the administration / Δ^13C(‰) value at 20 min after the administration: normal rats, mean±SD; for Δ^13C(‰) peak value compared with the peak value of Bz-Ala-(^13C-Ala)-ONa: comparison in words
Method: (§1) Overnight-fasted rats (male, Wistar, 8-week old) in the awake state were individually fixed in a rat holder of a microwave irradiation apparatus. The breath was collected at a rate of about 100 to 300 ml/min using a stroke pump (Variable Stroke Pump VS-500; Shibata Kagaku Kogyo), and the CO2 concentration therein was maintained at about 3%. A Perma Pure drier (MD-050-12P; Perma Pure INC.) was set between the rat holder and the stroke pump to remove water vapor from the breath. When the CO2 concentration was stabilized, the rat was temporarily released from the rat holder. A ^13C-labeled dipeptide or a sodium salt thereof each dissolved in distilled water was administered to the stomach of the rat using an oral probe [dose: 35 μmol/kg (5 ml/kg)]. The breath was sampled with a syringe every 5 min until up to 20 min. A 15 ml sample was transferred from the syringe into a vacuum vial (10 ml), sealed and subjected to automated analysis by GC-MS (Breath MAT) [FinniganMAT]. Δ^13C(‰) was calculated from δ^13C values which are ^13C values of a sample (i.e. differences from the standard substance PDB) using the following formula. Δ^13C(‰)=(δ^13C)tmin−((δ^13C)0 min <Breath MAT Measuring Conditions>
Apparatus: Breath MAT plus (Finningan)
Using Ac-Met-(^13C-Ala)-ONa, Z-Met-(^13C-Ala)-ONa, Boc-Met-(^13C-Ala)-ONa or Boc-Phe-(^13C-Ala)-ONa [dose: 35 μmol/kg (5 ml/kg)], ^13C-breath tests were carried out in the same manner as in Example 12. The resultant Δ^13C(‰) peak values were compared with the Δ^13C(‰) peak value in the Bz-Ala-(^13C-Ala)-ONa breath test.
(§2) As in Example 12, Bz-Phe-(^13C-Ala)-ONa [dose: 12.6 mg/kg (35 μmol/kg)], Bz-Gln-(^13C-Ala)-ONa [dose: 12.0 mg/kg (35 μmol/kg)], Bz-Val-(^13C-Ala)-ONa [dose: 11.0 mg/kg (35 μmol/kg)], Bz-Tyr-(^13C-Ala)-ONa [dose: 13.2 mg/kg (35 μmol/kg)], Bz-Met-(^13C-Ala)-ONa [dose: 12.1 mg/kg (35 μmol/kg)], Bz-Ser-(^13C-Ala)-ONa [dose: 10.6 mg/kg (35 μmol/kg)], Bz-Thr-(^13C-Ala)-ONa [dose: 11.0 mg/kg (35 μmol/kg)] or Boc-Phe-(^13C-Ala)-ONa [dose: 8.84 mg/kg (24.6 μmol/kg)] was administered orally to normal rats and chronic pancreatitis rats. Then, the time course of the degree of increase of the ^13C concentration in exhaled CO2 (Δ^13C(‰)) was measured.

[2] = test system: pancreatic exocrine function; assay: 13C-dipeptide breath test in chronic pancreatitis rats (oleic acid injected into pancreatic duct); type: in vivo, rat; conditions: mean±SD
Method: as §1
Chronic pancreatitis rats were created according to the method of Mundlos et al., Pancreas 1:29 (1986). Oleic acid was injected into the pancreatic duct of 5-week old Wistar male rats. After breeding for 3 weeks, they were used in ^13C-dipeptide breath tests.
as §2

[3] = Table 1, overnight-fasted Wistar rats
[4] = Table 1, overnight-fasted Wistar rats, peak in time course of Δ13C(‰) up to 20 min

Structure (SMILES)	Δ^13C(‰) peak value compared with the peak value of Bz-Ala-(^13C-Ala)-ONa ([1]; rats, oral 35 μmol/kg)	Δ^13C(‰) peak value [1, 3]	Peak time [1, 4]	Δ^13C(‰) value at 5 min after the administration ([1]; oral 35 μmol/kg)	Δ^13C(‰) value at 10 min after the administration ([1]; oral 35 μmol/kg)	Δ^13C(‰) value at 15 min after the administration ([1]; oral 35 μmol/kg)	Δ^13C(‰) value at 5 min after the administration ([2]; oral 35 μmol/kg)	Δ^13C(‰) value at 10 min after the administration ([2]; oral 35 μmol/kg)	Δ^13C(‰) value at 15 min after the administration ([2]; oral 35 μmol/kg)	also measured
C[C@H](NC(=O)[C@H](Cc1ccccc1)NC(=O)OC(C)(C)C)[13C](=O)[O-].[Na+] [Na salt of Boc-Phe-(^13C-Ala), t-butyloxycarbonyl-L-phenylalanyl-^13C-L-alanine]	higher									Peak time ([1]; Table 2, rats): 20 min; Δ^13C(‰) peak value ([1]; Table 2, rats): 46.06 ‰; Δ^13C(‰) value at 5 min after the administration ([1]; oral 8.84 mg/kg (24.6 μmol/kg)): 5.02±3.79 ‰; Δ^13C(‰) value at 10 min after the administration ([1]; oral 8.84 mg/kg (24.6 μmol/kg)): 24.36±7.52 ‰; Δ^13C(‰) value at 15 min after the administration ([1]; oral 8.84 mg/kg (24.6 μmol/kg)): 28.13±4.43 ‰; Δ^13C(‰) value at 20 min after the administration ([1]; oral 8.84 mg/kg (24.6 μmol/kg)): 25.09±2.00 ‰; Δ^13C(‰) value at 5 min after the administration ([2]; oral 8.84 mg/kg (24.6 μmol/kg)): 0.74±0.54 ‰; Δ^13C(‰) value at 10 min after the administration ([2]; oral 8.84 mg/kg (24.6 μmol/kg)): 3.43±1.46 ‰; Δ^13C(‰) value at 15 min after the administration ([2]; oral 8.84 mg/kg (24.6 μmol/kg)): 6.36±2.67 ‰; Δ^13C(‰) value at 20 min after the administration ([2]; oral 8.84 mg/kg (24.6 μmol/kg)): 10.16±3.95 ‰
CC(C)[C@H](NC(=O)c1ccccc1)C(=O)N[C@@H](C)[13C](=O)[O-].[Na+] [Na salt of Bz-Val-(^13C-Ala), N-benzoyl-L-valyl-^13C-L-alanine]	higher	52.89 ‰	15 min	13.98±6.59 ‰	35.22±8.02 ‰	52.89±11.18 ‰	2.21±2.74 ‰	10.62±12.40 ‰	18.80±19.39 ‰	Δ^13C(‰) value at 20 min after the administration ([1]; oral 35 μmol/kg): 45.38±6.53 ‰; Δ^13C(‰) value at 20 min after the administration ([2]; oral 35 μmol/kg): 23.95±19.38 ‰
C[C@H](NC(=O)[C@H](CCC(N)=O)NC(=O)c1ccccc1)[13C](=O)[O-].[Na+] [Na salt of Bz-Gln-(^13C-Ala), N-benzoyl-L-glutaminyl-^13C-L-alanine]	higher	54.56 ‰	10 min	13.86±4.98 ‰	54.56±14.10 ‰	51.27±3.21 ‰	3.41±3.44 ‰	15.32±13.04 ‰	28.06±19.01 ‰	
